Drawing on ChEMBL document CHEMBL5465560, “Selectivity Literature for EUbOPEN Chemogenomic Library” (2024), this text covers dTM, % of control and % of inhibition for five molecules.

Structures are written as SMILES.

The target in assay [1] is Vascular endothelial growth factor receptor 1 (Homo sapiens) (UniProt P17948). Description: Selectivity interaction (Kinase panel (DSF assay)) EUB0001558a FLT1. For orientation: Differential scanning fluorimetry follows unfolding on heating by fluorescence.
In assay [2] the target is Mitogen-activated protein kinase 7 (Homo sapiens) (UniProt Q13164). The experiment in a line: Selectivity interaction (KinomeScan (DiscoverX)) EUB0001079a MAPK7. The following applies: at 1 µM.
The target in assay [3] is T1, Phosphatidylinositol 3-kinase C2 domain-containing subunit gamma (Homo sapiens) (UniProt O75747).
T1 sequence (whole entry): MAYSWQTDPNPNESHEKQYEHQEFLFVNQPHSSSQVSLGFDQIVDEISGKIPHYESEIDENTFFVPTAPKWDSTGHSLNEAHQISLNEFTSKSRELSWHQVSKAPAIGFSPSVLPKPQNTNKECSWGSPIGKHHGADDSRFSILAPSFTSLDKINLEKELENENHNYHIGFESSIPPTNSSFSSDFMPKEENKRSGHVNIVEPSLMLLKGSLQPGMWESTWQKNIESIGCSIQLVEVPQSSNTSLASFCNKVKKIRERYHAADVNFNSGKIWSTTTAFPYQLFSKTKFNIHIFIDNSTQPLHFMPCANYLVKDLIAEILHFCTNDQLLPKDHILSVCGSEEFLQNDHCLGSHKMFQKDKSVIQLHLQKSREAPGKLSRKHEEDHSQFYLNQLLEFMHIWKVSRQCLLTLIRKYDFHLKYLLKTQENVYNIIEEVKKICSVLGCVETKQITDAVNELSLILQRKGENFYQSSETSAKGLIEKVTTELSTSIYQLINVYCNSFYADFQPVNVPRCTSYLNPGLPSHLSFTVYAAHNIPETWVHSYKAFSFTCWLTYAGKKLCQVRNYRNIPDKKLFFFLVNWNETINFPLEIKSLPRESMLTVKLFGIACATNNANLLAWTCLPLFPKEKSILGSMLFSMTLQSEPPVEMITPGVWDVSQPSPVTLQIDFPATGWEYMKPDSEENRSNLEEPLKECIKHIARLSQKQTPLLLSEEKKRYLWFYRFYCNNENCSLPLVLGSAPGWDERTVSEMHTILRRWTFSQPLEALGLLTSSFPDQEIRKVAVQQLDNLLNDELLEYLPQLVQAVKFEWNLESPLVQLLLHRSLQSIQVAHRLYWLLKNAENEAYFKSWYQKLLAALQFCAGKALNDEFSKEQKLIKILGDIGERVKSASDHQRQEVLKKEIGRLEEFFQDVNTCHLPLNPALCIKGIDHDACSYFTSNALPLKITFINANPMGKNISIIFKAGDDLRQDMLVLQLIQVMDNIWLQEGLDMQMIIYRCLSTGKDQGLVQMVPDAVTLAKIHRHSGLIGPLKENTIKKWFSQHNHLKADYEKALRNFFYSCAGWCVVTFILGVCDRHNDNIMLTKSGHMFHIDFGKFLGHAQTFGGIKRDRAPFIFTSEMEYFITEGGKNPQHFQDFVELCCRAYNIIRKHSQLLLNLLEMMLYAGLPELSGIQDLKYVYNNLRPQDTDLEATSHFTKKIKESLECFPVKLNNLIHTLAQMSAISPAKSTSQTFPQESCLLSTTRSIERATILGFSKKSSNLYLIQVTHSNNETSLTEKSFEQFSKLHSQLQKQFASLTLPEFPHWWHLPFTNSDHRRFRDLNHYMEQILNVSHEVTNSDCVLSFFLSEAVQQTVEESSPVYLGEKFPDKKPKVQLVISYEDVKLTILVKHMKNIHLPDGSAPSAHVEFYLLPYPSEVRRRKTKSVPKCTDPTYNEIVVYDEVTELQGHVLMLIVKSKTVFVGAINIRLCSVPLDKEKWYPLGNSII
The experiment in a line: Selectivity interaction (KinomeScan (DiscoverX)) EUB0000045b PIK3C2G.

Assay [4] has as its target Ribosomal protein S6 kinase alpha-3 (Homo sapiens, UniProt P51812). Description: Selectivity interaction (ActivX KiNativ screen (kinase selectivity in THP-1 cell lysates)) EUB0000639a RPS6KA3. The class given is subcellular. The note with it: lysate, at 0.01 µM.
Assay [5] deals with T2, Serine/threonine-protein kinase DCLK1 (Homo sapiens) (UniProt O15075).
T2 sequence (whole entry): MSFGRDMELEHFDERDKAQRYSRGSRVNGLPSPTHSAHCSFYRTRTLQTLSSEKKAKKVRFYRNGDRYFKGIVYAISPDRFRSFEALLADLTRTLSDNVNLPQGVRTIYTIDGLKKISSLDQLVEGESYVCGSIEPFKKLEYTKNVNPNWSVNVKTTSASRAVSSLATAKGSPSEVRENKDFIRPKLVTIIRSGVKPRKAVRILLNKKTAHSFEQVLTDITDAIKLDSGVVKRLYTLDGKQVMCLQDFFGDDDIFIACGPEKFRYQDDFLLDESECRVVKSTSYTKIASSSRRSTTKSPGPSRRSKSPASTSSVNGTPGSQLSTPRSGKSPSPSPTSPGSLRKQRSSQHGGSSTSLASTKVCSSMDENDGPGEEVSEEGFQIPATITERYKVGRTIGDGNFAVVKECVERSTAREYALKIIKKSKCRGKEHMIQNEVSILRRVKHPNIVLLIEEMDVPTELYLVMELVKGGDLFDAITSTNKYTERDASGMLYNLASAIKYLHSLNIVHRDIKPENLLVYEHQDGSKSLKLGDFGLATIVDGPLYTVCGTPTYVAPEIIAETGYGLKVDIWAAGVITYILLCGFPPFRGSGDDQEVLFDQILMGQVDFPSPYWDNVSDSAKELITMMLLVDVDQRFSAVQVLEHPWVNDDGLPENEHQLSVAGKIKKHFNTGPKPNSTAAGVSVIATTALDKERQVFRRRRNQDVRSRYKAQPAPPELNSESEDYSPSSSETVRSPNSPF
The experiment in a line: Selectivity interaction (KinomeScan (DiscoverX)) EUB0000618a DCLK1. The note with it: at 10 µM.

Mitogen-activated protein kinase 7 (Homo sapiens), sequence (Q13164 2-816 limits assumed): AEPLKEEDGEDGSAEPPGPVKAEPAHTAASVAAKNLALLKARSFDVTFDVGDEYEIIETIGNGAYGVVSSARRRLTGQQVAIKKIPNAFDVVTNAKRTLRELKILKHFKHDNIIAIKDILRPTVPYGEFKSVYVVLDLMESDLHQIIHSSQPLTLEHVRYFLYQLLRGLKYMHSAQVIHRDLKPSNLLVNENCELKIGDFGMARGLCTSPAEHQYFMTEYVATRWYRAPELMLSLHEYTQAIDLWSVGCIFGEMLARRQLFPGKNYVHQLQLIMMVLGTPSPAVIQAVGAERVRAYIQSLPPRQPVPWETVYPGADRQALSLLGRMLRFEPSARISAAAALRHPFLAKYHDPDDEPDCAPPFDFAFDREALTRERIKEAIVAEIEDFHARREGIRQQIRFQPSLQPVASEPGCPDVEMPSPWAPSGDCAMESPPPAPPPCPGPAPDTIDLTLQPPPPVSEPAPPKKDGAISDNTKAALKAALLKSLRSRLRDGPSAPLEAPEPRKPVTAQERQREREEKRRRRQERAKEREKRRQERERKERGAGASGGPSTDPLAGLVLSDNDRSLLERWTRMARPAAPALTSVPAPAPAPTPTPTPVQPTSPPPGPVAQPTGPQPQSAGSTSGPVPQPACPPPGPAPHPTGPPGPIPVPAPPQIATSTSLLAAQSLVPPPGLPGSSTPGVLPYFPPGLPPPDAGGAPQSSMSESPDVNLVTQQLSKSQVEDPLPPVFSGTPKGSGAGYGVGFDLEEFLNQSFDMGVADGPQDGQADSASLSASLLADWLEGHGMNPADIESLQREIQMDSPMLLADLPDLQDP
Ribosomal protein S6 kinase alpha-3, sequence (P51812 whole entry): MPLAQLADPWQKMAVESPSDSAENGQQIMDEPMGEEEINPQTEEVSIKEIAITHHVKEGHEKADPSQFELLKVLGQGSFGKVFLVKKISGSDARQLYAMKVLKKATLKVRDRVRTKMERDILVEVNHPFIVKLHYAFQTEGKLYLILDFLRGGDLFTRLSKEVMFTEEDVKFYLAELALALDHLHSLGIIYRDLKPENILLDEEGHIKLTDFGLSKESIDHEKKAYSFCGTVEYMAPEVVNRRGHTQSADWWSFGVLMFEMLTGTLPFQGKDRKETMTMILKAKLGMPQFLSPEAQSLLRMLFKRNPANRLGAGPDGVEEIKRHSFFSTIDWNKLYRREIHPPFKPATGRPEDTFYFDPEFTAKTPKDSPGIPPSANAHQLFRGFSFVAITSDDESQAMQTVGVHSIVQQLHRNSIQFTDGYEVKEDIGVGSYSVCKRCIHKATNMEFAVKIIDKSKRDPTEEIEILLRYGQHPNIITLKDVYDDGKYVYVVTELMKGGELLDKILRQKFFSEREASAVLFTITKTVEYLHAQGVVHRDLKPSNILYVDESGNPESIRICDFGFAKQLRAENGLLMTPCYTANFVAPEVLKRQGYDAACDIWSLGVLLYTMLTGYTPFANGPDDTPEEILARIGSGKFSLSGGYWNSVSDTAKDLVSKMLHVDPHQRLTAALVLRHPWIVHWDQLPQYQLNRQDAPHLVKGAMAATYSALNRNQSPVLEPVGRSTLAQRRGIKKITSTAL
Vascular endothelial growth factor receptor 1 (Homo sapiens), sequence (P17948 whole entry): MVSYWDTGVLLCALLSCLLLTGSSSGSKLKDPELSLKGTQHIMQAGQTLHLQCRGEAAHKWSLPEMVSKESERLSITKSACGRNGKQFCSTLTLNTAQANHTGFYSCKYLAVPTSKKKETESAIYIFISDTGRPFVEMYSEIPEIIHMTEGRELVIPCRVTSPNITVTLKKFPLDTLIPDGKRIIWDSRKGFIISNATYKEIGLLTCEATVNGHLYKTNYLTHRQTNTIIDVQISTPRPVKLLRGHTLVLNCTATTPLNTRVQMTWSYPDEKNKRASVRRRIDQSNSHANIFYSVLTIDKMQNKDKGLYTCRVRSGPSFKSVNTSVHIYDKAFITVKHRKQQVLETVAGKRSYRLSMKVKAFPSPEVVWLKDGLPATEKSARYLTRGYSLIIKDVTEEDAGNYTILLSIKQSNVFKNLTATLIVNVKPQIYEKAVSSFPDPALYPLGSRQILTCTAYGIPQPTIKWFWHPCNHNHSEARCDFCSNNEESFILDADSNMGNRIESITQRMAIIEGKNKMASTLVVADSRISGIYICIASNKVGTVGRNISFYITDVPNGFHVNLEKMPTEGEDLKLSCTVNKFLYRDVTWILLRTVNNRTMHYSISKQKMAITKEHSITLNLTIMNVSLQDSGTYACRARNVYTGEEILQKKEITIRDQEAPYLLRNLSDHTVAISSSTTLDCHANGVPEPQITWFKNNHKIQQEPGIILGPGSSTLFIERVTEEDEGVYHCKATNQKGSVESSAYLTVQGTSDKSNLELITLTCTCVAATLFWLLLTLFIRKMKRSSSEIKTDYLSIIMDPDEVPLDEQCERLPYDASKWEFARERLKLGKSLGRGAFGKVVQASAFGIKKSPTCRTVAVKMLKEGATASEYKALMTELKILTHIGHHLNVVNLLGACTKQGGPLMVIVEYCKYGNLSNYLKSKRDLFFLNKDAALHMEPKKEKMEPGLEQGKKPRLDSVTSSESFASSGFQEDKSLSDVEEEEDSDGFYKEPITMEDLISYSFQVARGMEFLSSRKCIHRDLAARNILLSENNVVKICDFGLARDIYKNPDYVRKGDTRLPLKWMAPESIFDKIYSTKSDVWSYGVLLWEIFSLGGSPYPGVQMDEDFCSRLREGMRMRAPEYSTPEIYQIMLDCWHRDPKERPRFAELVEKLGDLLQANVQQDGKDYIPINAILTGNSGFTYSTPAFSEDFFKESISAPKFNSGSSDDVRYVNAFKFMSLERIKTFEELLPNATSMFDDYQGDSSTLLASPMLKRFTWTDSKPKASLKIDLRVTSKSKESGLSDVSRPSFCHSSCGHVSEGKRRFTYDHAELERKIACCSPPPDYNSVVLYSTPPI

In assay [1], `CC(C)(O)[C@H](F)CN1Cc2cc(NC(=O)c3cnn4cccnc34)c(N3CCOCC3)cc2C1=O` showed a dTM of 3.3 K.
For `Nc1cnc(N2CCc3cc(S(=O)(=O)Nc4c(F)cc(Cl)cc4F)cc(N4CCCC4=O)c32)nc1` [TP-020n], the % of control in assay [2] turned out to be 100%.
On to `C=CC(=O)Nc1cc(-n2c(=O)ccc3cnc4ccc(-c5ccc(NS(C)(=O)=O)cc5)cc4c32)ccc1C`, for which the % of control in assay [3] (at 1 µM) is 100%; in assay [3] (at 10 µM) it was 8.7%.
In turn, `CC[C@@H]1[C@H](F)C(=O)N[C@@H]1COc1nccc2cc(C(N)=O)c(OC)cc12` [ZIMLOVISERTIB] came in with a % of inhibition in assay [4] of 10.7%.
In turn, `O[C@H]1CC[C@H](Nc2ncc3nc(Nc4c(F)cc(F)cc4F)n([C@H]4CCOC4)c3n2)CC1` yielded a % of control in assay [5] of 81%.
